The values that follow are results of earlier work, collected in patent publication US20210060105A1, “GINKGO BILOBA EXTRACT COMPOSITE FORMULATION AND USE OF THE SAME” (priority 2019, published 2021).

For data set [1] the following is noted: increased from the original 49.7±3.6 mg/dL.

As for `CC1=C(/C=C/C(C)=C/C=C/C(C)=C/C=C/C=C(C)/C=C/C=C(C)/C=C/C2=C(C)C(=O)[C@@H](O)CC2(C)C)C(C)(C)C[C@H](O)C1=O` [Astaxanthin, astaxanthin], where the note is “compared with vitamin E”, the “antioxidant ability relative to vitamin E” value is 550 times. Further, the “antioxidant ability relative to β-carotene” value (compared with β-carotene) is 10 times. Also, the “HDL in vivo after astaxanthin” value in data set [1] was 66.5 ± 5.1 mg/dL.
